{"source": "patent US8101760B2", "about": "“Glucocorticoid receptor modulator and methods of use” (Eli Lilly and Company, priority 2007, dated 2012)", "target": "T1, human progesterone receptor (PR) (Homo sapiens, UniProt P06401)", "T1 construct": "expressed in transfected cells; host or cells: HEK293, transient transfection (Fugene), CMV promoter plasmid", "T1 sequence (P06401 1-933)": "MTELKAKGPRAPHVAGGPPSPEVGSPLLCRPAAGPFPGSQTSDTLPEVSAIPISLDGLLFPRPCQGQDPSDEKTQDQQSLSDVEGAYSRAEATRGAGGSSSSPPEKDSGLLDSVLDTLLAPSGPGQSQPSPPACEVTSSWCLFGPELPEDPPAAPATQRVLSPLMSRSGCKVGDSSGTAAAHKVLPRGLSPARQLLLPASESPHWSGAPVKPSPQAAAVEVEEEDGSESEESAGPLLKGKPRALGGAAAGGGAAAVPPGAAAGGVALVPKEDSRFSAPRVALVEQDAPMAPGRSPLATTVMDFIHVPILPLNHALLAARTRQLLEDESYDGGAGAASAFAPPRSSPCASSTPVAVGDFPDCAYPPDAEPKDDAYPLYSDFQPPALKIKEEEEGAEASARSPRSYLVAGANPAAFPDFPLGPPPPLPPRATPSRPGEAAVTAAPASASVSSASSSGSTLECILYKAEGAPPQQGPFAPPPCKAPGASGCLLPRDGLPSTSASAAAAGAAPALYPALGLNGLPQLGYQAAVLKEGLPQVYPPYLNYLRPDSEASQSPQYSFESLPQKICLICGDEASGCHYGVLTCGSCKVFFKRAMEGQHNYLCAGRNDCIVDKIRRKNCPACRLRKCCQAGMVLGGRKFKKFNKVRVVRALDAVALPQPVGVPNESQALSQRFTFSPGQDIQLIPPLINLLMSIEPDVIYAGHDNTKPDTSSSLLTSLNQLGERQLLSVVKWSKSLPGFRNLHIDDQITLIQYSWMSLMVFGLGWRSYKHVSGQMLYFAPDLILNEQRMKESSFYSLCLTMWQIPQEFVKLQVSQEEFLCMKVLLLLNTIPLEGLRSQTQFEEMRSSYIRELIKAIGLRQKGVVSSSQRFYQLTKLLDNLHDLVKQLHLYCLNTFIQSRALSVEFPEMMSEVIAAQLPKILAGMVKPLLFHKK", "assay": "Nuclear hormone receptor functional modulation assay (GRE-luciferase, HEK293), PR", "assay_type": "cell-based", "from_the_text": "The solvents, reagents, and ligands employed in the functional assay are readily available from commercial sources, or can be prepared by one of ordinary skill in the art.\nHuman embryonic kidney HEK293 cells are transfected with steroid hormone receptor and reporter gene plasmids using Fugene™ (Roche Diganostics) transfection reagent. Briefly, the reporter plasmid containing two copies of probasin ARE (androgen response element 5′GGTTCTTGGAGTACT3′ (SEQ ID NO:1)) and TK(thymidine kinase) promoter upstream of the luciferase reporter cDNA, is transfected into HEK293 cells with a plasmid constitutively expressing human androgen receptor (AR) using viral CMV(cytomegalovirus) promoter. The reporter plasmid containing two copies of GRE (glucocorticoid response element 5′TGTACAGGATGTTCT′3 (SEQ ID NO:2)) and TK promoter upstream of the luciferase reporter cDNA is transfected with a plasmid constitutively expressing either human glucocorticoid receptor (GR), human mineralocorticoid receptor (MR), or human progesterone receptor (PR) using viral CMV promoter. Cells are transfected in T150 cm flasks in DMEM media with 5% charcoal-stripped Fetal Bovine Serum (FBS). […] In the antagonist mode for the assays, low concentrations of agonist for each respective receptor are added to the media (0.25 nM dexamethasone for GR, 0.3 nM of methyltrienolone for AR, 0.05 nM of promegestone for PR and 0.05 nM aldosterone for MR), and the ability of test compound to antagonize the agonist response is determined. After 24 hours of incubation with test compounds, cells are lysed and luciferase activity is determined using standard techniques.\nData are fitted to a four parameter-fit logistic curve fit to determine EC50 values. […] IC50 values may be determined similarly using antagonist mode assay data. Percent inhibitions may also be determined relative to the response in the presence of agonist alone, as described above."}
{"compound": "CC/C(=C1\\c2ccc(Cl)cc2OCc2ncccc21)c1cccc(NS(C)(=O)=O)c1", "note": "[Compound (I), (E)-N-{3-[1-(8-Chloro-11H-10-oxa-1-aza-dibenzo[a,d]cyclohepten-5-ylidene)-propyl]-phenyl}-methanesulfonamide]", "values": [{"measurement": "EC50", "setting": "agonist mode, activating transcription", "result": "> 10", "unit": "µM"}, {"measurement": "modulation of gene expression mediated by PR", "setting": "functional modulation, in words", "result": "only limited activity"}, {"measurement": "PR % Eff.", "setting": "percent efficacy at 10 μM relative to 30 nM promegestone, mean of 3", "result": 40.1, "unit": "%"}]}
